In patent US11357814B2, “Application of Sarcococca vagans, Chinese medicinal ointment for treating skin disease, preparation method and application thereof” (priority 2017, dated 2022):

Tests used:
[1] = system: xylene-induced mouse ear edema; experiment: Xylene-induced mouse ear edema (Effect Example 6); type: in vivo, Kunming mice; details: dexamethasone 9.9 ug/kg fed
Excerpt: Influences of Sarcococca […] to xylene-induced mouse ear edema. Roots of Sarcococca […] dried in the sun, and ground to powder for subsequent use. 1. […] Test reagent: Sarcococca […] powder, dexamethasone acetate tablets (Zhejiang Xianju Pharmaceutical Co., Ltd., batch No. 120347), and glacial acetic acid and xylene were both analytically pure. 3. […] After the Sarcococca […] powder was sieved by 120 meshes, a suitable amount of the Sarcococca […] powder was taken and dissolved in a 0.5% sodium carboxymethylcellulose solution, to prepare high-dosage (0.30 g/ml), medium-dosage (0.15 g/ml), and low-dosage (0.075 g/ml) Sarcococca […] powder suspension. The dexamethasone acetate tablets were ground in the 0.5% sodium carboxymethylcellulose solution, to prepare 19.8 ug/ml suspension. […] For each group, the mice were fed twice each day for first two days, once on the third day, and after 30 min, 0.05 ml of xylene was applied to both front and back faces of right ear of each mouse in each group, while left ear was not coated with the medicine as control. 40 min after the coating, the mice were killed by cervical dislocation, the left and right ears were cut off, and ear slices at the same parts of the two ears were taken with a puncher and weighed. The difference between weights of the left and right ears is swelling degree. Each group was recorded, and t test was carried out among the groups. […]

[2] = system: capillary permeability of mouse abdominal cavities; experiment: Inhibition of capillary permeability of mouse abdominal cavities, Evans blue / glacial acetic acid (Effect Example 7); type: in vivo, Kunming mice; details: dexamethasone 9.9 ug/kg fed; 580 nm
Excerpt: Test for Sarcococca […] effect of inhibiting capillary permeability. Roots of Sarcococca […] dried in the sun, and ground to powder for subsequent use. 1. […] 2. Test reagent: Sarcococca […] powder, dexamethasone acetate tablets (Zhejiang Xianju Pharmaceutical Co., Ltd., batch No. 120347), and glacial acetic acid and xylene were both analytically pure. 3. […] After the Sarcococca […] powder was sieved by 120 meshes, a suitable amount of the Sarcococca […] powder was taken and dissolved in a 0.5% sodium carboxymethylcellulose solution, to prepare high-dosage (0.30 g/ml), medium-dosage (0.15 g/ml), and low-dosage (0.075 g/ml) Sarcococca […] powder suspension. The dexamethasone acetate tablets were ground in the 0.5% sodium carboxymethylcellulose solution, to prepare 19.8 ug/ml suspension. […] For each group, the mice were fed twice each day for the first two days, fed once on the third day, after 30 min, the animals in each group were injected with Evans blue saline at 0.1 ml/10 g through tail vein, then were intraperitoneally injected with 0.9% glacial acetic acid, 40 min after the injection, each animal was killed by cervical dislocation, whose abdominal cavity was washed with saline, and a washing liquid was collected, to be adjusted to a volume of 7 ml, centrifuged at 3000 r/min for 5 min, and measured in absorbance at a 580 nm wavelength.

[3] = system: allergic dermatitis; experiment: Clinical treatment of allergic skin diseases with ointment (Effect Example 2); type: in vivo, human
Excerpt: For the purpose of explaining application of the Chinese medicinal ointment provided in the present disclosure for treating allergic skin diseases, for example, treating dermatitis and eczema.
1. Subjects: 300 patients were collected clinically, with […] and 131 females, between 19 years old and 68 years old, all of whom suffered from allergic dermatitis.
(§1) 2. Test grouping: the patients were randomly grouped into 3 groups, 100 patients in each group. The Chinese medicinal ointment prepared in Examples 1-9 was used for the test group, the Chinese medicinal ointment prepared in the comparative example was used for Control Group 1, and another commercially available ointment for treating dermatitis, e.g. Fluocinolone acetonide, was used for Control Group 2. For each patient, the corresponding ointment was applied on affected parts twice a day, for 1 month continuously.
(§2) 3. Criterion of therapeutic effect:
Cured: clinical symptoms completely disappear;
Total effective rate=(cured cases+effective cases)/total cases

[4] = system: tinea capitis, tinea corporis, tinea cruris or tinea of feet and hands; experiment: Clinical treatment of fungal skin diseases with ointment (Effect Example 3); type: in vivo, human
Excerpt: For the purpose of explaining application of the Chinese medicinal ointment provided in the present disclosure for treating fungal skin diseases, for example, treating tinea capitis, tinea corporis, tinea cruris and tinea of feet and hands.
1. Subjects: 150 patients were collected clinically, with 101 males and 49 females, between 16 years old and 65 years old, all of whom suffered from tinea capitis, tinea corporis, tinea cruris or tinea of feet and hands.
as §1, with “50” for “100”, “tinea corporis,” for “dermatitis,”, “Ketoconazole,” for “Fluocinolone acetonide,”, “2 months” for “1 month”
as §2
Cured: Fungi microscopic examination is negative, and tinea and pruritus completely disappear;
Effective: Fungi microscopic examination is negative, tinea substantially disappears, and pruritus is evidently alleviated;
Ineffective: Fungi microscopic examination is positive, and tinea and pruritus are not relieved. Total effective rate=(cured cases+effective cases)/total cases

[5] = cases of 50 patients per group, twice a day for 2 months

CC(=O)OCC(=O)[C@@]1(O)[C@H](C)C[C@H]2[C@@H]3CCC4=CC(=O)C=C[C@]4(C)[C@@]3(F)[C@@H](O)C[C@@]21C [Dexamethasone, dexamethasone acetate]
Swelling Degree ([1]; 40 min after xylene): 0.0101 ± 0.0034 g | Swelling Inhibition Rate ([1]; vs normal group): 20.0% | Absorbance (A) [2]: 0.569 ± 0.238 ^

CC1(C)O[C@@H]2C[C@H]3[C@@H]4C[C@H](F)C5=CC(=O)C=C[C@]5(C)[C@@]4(F)[C@@H](O)C[C@]3(C)[C@]2(C(=O)CO)O1 [Fluocinolone acetonide]
Total Effective Rate ([3]; (cured cases+effective cases)/total cases, twice a day for 1 month): 77% | Cured ([3]; cases of 100 patients per group, applied twice a day for 1 month, clinical symptoms completely disappear): 40 | Ineffective ([3]; cases of 100 patients per group, twice a day for 1 month): 23 | Effective ([3]; cases of 100 patients per group, twice a day for 1 month, symptoms evidently improved): 37

CC(=O)N1CCN(c2ccc(OCC3COC(Cn4ccnc4)(c4ccc(Cl)cc4Cl)O3)cc2)CC1 (centres unmarked) [Ketoconazole]
Total Effective Rate ([4]; (cured cases+effective cases)/total cases, twice a day for 2 months): 74% | Cured ([4]; cases of 50 patients per group, applied twice a day for 2 months, fungi microscopic examination negative, tinea and pruritus completely disappear): 16 | Effective [4, 5]: 21 | Ineffective [4, 5]: 13
